Laboratory results: patent publication US11976069B2, “Inhibitors of histone deacetylase useful for the treatment or prevention of HIV infection” (Merck Sharp & Dohme LLC, priority 2019, dated 2024)
Like-named read-outs stand apart in the source and are kept apart here.

Columns and labels:
Assay type in all cases: biochemical
[1] = target: T1, HDAC1 (Homo sapiens, UniProt Q13547); experiment: HDAC1 inhibition, modified Fluor-de-Lys assay; settings: 3 h pre-incubation, 0.3 nM enzyme, 20 μM substrate BML-KI104; read-out: HDAC-1 IC50
T1 construct: FLAG (C)
Description: (§1) Human HDAC Enzyme Inhibitor FLUOR-DE-LYS Assay Materials
(§2) Recombinant human HDAC1, HDAC2, and HDAC3/SMRT heterodimer were prepared by Merck Research Laboratories. […] The eluted protein was then passed over an anti-HDAC1 immunoaffinity column to remove any complexes containing HDAC1. […]
(§3) The histone deacetylase activities of HDAC1, HDAC2, HDAC3, HDAC6, and HDAC8 were measured in modified Fluor-de-Lys assays in 384-well format. In this assay, HDAC enzymes are initially incubated with an ε-acetyl (or -trifluoroacetyl)-L-lysine-containing substrate with a C-terminal amide having aminomethylcoumarin as the amine component. HDACs cleave the ε-acetyl group, rendering the resulting product susceptible to AMC cleavage by trypsin. The released AMC is then detected by its fluorescence.
(§4) The HDAC 1, 2 assays employed buffer A, which contained 20 mM HEPES, pH 8.0, 1 mM MgCl2, 137 mM NaCl, 2.7 mM KCl, 0.05% BSA. The HDAC3/SMRT assay employed buffer B, consisting of 20 mM HEPES, pH 8.0, 1 mM MgCl2, 50 mM NaCl, 2.7 mM KCl, 0.05% BSA, 0.005% Tween 20, and 10 μM IP4. The HDAC6 assay employed buffer C, consisting of 20 mM HEPES, pH 8.0, 1 mM MgCl2, 137 mM NaCl, 2.7 mM KCl, 0.5 mM TCEP (Calbiochem) and 0.05% BSA. The HDAC8 assay employed buffer D, consisting of 20 mM HEPES, pH 8.0, 1 mM MgCl2, 100 mM NaCl, 20 mM KCl, 0.1% n-octyl-β-D-glucoside (Anatrace, Maumee, Ohio) and 0.05% BSA. All steps were performed at room temperature (23° C.). The assay was performed by pre-incubating serial dilutions of test compounds with the target HDAC prior to initiation with substrate. Each compound was titrated in a 10-point dose response, using a 1:3 fold dilution scheme, with 0.15 ul of solution added by ECHO555 to the plate, followed by the addition of 20 μl of the appropriate HDAC isoform diluted in appropriate assay buffer. […] Final conditions used for each assay were: 1. HDAC 1, 0.3 nM total enzyme, 20 μM substrate BML-KI104; 2. HDAC 2, 1.5 nM total enzyme, 40 μM substrate BML-KI104; 3. HDAC 3/SMRT, 0.3 nM total enzyme, 20 μM substrate BML-KI104; 4. HDAC 6, 1.3 nM total enzyme, 2.5 μM substrate BML-KI104; 5. HDAC 8, 1.3 nM total enzyme, 200 μM substrate BML-KI178; the final high dose of test compound was 30 μM. For potent compounds, 900 nM was used as the final high dose. The reactions were stopped and developed by addition of 30 ul of HDAC developer solution containing a saturating level of HDAC inhibitor as follows: 1.

[2] = target: T2, HDAC6 (Homo sapiens, UniProt Q9UBN7); experiment: HDAC6 inhibition, modified Fluor-de-Lys assay; settings: 3 h pre-incubation, read-out: HDAC-6 IC50
T2 sequence (Q9UBN7 1-1215): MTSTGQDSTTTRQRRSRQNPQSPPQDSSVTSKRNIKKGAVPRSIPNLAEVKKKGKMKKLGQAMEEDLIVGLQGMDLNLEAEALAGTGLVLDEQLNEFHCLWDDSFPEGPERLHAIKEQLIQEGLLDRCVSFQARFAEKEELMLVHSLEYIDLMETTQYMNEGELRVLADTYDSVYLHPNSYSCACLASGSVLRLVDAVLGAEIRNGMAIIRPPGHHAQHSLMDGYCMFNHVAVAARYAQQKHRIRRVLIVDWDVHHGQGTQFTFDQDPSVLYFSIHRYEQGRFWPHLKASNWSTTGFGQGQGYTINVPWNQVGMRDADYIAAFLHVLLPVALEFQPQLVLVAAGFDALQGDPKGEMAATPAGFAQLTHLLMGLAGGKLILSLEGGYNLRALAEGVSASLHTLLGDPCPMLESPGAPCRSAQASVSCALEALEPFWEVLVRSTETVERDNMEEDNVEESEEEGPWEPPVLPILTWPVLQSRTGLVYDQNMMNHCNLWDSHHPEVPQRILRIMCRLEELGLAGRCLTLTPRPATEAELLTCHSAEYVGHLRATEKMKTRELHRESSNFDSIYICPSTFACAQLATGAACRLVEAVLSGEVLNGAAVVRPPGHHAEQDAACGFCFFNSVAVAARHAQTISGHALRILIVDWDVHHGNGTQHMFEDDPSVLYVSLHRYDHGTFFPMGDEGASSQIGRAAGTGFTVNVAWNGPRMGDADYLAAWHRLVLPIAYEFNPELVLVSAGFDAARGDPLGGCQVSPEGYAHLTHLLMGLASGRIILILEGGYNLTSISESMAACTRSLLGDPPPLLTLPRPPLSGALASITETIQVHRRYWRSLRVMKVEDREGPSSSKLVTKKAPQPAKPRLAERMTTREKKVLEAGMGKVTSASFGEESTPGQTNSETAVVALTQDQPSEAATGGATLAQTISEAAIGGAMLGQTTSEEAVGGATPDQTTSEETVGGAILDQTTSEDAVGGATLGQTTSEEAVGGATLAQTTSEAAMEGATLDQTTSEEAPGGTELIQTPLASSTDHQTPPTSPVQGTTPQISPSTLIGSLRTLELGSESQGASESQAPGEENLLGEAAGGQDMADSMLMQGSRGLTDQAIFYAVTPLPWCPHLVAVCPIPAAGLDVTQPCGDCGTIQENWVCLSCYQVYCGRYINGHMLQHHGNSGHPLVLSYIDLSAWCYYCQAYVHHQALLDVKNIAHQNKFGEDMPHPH
Description: as §1, §3, §4

[3] = target: T3, HDAC3/SMRT heterodimer (Homo sapiens, UniProt O15379); experiment: HDAC3/SMRT inhibition, modified Fluor-de-Lys assay; settings: 3 h pre-incubation, 0.3 nM enzyme, 20 μM substrate BML-KI104, read-out: HDAC-3 IC50
T3 construct: FLAG (C)
Description: as §1, §2, §3, §4

[4] = target: T4, HDAC2 (Homo sapiens, UniProt Q92769); experiment: HDAC2 inhibition, modified Fluor-de-Lys assay; settings: 3 h pre-incubation, […] enzyme, 40 μM substrate BML-KI104; read-out: HDAC-2 IC50
T4 construct: Full length human HDAC2-FLAG was expressed in baculovirus infected Sf9 cells; FLAG (C); host or cells: baculovirus infected Sf9 cells
Description: as §1, §2, §3, §4

[5] = 1.3 nM enzyme, 2.5 μM substrate BML-KI104
[6] = […] enzyme, […] substrate BML-KI104

T3 sequence (O15379 whole entry): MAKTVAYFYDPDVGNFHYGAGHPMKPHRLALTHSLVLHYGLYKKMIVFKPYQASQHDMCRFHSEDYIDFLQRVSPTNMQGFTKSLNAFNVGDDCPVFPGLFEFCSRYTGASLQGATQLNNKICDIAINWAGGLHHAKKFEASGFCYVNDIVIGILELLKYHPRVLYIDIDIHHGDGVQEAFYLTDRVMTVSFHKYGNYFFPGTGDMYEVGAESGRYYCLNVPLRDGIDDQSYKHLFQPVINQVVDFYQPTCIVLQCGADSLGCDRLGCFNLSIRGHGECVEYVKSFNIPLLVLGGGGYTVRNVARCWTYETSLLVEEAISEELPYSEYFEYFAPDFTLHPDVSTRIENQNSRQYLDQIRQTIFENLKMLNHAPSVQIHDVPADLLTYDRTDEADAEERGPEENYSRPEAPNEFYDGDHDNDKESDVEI
T3 sequence (Q9Y618 1-899 partner limits assumed): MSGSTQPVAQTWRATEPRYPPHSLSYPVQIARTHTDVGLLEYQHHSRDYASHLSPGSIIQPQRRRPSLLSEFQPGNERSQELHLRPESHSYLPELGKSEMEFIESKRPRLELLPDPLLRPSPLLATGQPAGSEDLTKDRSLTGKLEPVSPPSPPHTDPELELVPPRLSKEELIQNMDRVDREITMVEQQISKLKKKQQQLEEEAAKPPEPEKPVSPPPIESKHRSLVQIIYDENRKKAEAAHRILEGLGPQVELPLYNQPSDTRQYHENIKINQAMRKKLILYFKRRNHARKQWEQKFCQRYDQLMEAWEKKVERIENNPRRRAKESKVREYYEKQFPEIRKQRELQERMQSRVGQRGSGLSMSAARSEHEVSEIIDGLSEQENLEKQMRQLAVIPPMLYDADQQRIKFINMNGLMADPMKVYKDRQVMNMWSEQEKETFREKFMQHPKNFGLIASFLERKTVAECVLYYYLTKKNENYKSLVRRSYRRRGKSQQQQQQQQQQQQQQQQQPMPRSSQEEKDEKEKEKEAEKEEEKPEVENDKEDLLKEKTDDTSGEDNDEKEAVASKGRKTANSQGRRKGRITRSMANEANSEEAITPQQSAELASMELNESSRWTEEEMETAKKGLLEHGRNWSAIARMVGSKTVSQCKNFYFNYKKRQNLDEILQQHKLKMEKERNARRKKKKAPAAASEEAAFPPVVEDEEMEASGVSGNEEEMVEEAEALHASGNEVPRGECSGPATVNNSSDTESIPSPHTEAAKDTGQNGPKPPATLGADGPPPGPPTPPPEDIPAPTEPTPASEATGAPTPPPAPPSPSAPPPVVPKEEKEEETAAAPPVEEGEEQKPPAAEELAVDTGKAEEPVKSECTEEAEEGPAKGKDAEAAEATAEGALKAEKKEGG
T1 sequence (Q13547 whole entry): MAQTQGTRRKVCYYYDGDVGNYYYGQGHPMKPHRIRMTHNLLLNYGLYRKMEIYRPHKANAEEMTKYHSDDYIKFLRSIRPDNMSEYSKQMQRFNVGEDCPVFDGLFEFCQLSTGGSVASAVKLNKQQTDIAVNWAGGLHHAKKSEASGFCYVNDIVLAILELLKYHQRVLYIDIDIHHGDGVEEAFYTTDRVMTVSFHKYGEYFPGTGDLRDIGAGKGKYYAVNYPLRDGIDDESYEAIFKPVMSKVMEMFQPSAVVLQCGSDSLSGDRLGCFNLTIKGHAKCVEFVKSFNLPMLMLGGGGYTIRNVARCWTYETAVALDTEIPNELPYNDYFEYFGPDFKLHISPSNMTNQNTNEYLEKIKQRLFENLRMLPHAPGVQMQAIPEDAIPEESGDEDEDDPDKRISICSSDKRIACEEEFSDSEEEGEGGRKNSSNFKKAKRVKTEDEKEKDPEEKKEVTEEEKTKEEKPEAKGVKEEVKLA
T4 sequence (Q92769 whole entry): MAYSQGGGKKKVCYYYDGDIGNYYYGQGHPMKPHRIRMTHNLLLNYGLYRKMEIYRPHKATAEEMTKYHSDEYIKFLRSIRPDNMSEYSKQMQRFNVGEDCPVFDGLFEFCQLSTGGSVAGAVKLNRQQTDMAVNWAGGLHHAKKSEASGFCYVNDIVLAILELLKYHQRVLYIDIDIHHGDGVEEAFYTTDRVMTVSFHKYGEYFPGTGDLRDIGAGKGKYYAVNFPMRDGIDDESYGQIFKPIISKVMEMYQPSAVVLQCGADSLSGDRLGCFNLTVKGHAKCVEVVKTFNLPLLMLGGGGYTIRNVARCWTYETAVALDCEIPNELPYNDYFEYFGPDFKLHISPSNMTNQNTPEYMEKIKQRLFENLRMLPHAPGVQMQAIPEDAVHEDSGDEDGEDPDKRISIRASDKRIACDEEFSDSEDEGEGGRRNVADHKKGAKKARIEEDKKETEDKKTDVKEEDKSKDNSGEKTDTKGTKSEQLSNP

Molecule | IC50 [1] [µM] | IC50 [2, 5] [µM] | IC50 [3] [µM] | IC50 [4] [µM] | IC50 [2, 6] [µM]
CCC(=O)CCCCC[C@H](NC(=O)[C@H]1CC12CCN(CC)CC2)c1[nH]c2nc1C(=O)NCCC/C=C/c1cccc-2c1 [Compound 15, (1S)-6-ethyl-N-{(1S)-7-oxo-1-[(11E)-6-oxo-3,7,18-triazatricyclo[11.3.1.1~2,5~]octadeca-1(17),2(18),4,11,13,15-hexaen-4-yl]nonyl}-6-azaspiro[2.5]octane-1-carboxamide] | 0.021 | > 0.9 | 0.018 | 0.223 | –
CCC(=O)CCCCC[C@@H]1NC(=O)[C@H]2CC23CCN(CCCCCCCCn2ccc4cc(c(OC)cc4c2=O)-c2cnc1[nH]2)CC3 [Compound 5, (1^1S,4S)-6^7-methoxy-4-(6-oxooctyl)-6^1,6^2-dihydro-5^1H-3-aza-6(6,2)-isoquinolina-15(4,1)-piperidina-5(2,5)-imidazola-1(1,2)-cyclopropanapentadecaphane-6^1,2-dione] | 0.00011 | – | 0.00013 | 0.00031 | 0.218
CCC(=O)CCCCC[C@@H]1NC(=O)[C@H]2CC23CCN(CCCOCCCn2ccc4cc(ccc4c2=O)-c2cnc1[nH]2)CC3 [Compound 12, (3S,6S)-6-(6-oxooctyl)-22-oxa-5,8,18,26,33-pentaazahexacyclo[24.2.2.1˜7,10˜0.1˜11,15˜0.1˜14,18˜0.0˜1,3˜]tritriaconta-7,9,11(32),12,14,16-hexaene-4,31-dione] | 0.00033 | – | 0.00032 | 0.0085 | –
(11S,4S)-4-(6-oxooctyl)-61,62-dihydro-3-aza-5(2,5)-oxazola-6(6,1)-quinolina-12(4,1)-piperidina-1(1,2)-cyclopropanadodecaphane-62,2-dione [Compound 8] | 0.042 | – | 0.13 | 0.287 | > 0.9
CCC(=O)CCCCC[C@H](NC(=O)[C@H]1CC12CCN(CC)CC2)c1[nH]c2nc1C(=O)NCCC/C=C\c1cccc-2c1 [Compound 14, (1S)-6-ethyl-N-{(1S)-7-oxo-1-[(11Z)-6-oxo-3,7,18-triazatricyclo[11.3.1.1~2,5~]octadeca-1(17),2(18),4,11,13,15-hexaen-4-yl]nonyl}-6-azaspiro[2.5]octane-1-carboxamide] | 0.133 | > 0.09 | 0.113 | 0.572 | –
CCC(=O)CCCCCC1NC(=O)C2CC2N2CCC(CCCCCn3c(=O)ccc4cc(ccc43)-c3cnc1o3)CC2 [Compound 7, (11S,4S)-4-(6-oxooctyl)-61,62-dihydro-3-aza-5(2,5)-oxazola-6(6,1)-quinolina-12(4,1)-piperidina-1(1,2)-cyclopropanadodecaphane-62,2-dione] | 0.016 | – | 0.057 | 0.26 | 0.858
